Values joined by “and” are separate entries in the source; they are usually repeats but may differ in a detail not shown here. Identical values can stand only once. Each block holds one compound with its values, some of them ahead of it.
Columns and labels:
[1] = test system: RPE1 cells; experiment: Cell growth assay (IncuCyte confluence over 72 h); format: cell-based
Protocol: (§1) Cell growth assay: Cell confluence (phase) from RPE1 (hTERT RPE-1, ATCC CLR_4000) or U2OS (ATCC, HTB-96) cell lines were monitored over time with the IncuCyte S3 (Sartiorius, Germany) in 384-well plates in 50 ul DMEM media, supplemented with 10% Fetal Bovine Serum (FBS) 1% penicillin/Streptomycin and incubated 24 h before treatment. Experiment was performed as described in Cano-Franco et al.. 50 μl of media containing either 2× final concentration of indicated compounds in or control compounds (final conc.: 0.1% DMSO, 250 nM Torin1, 200 ng/mL Bafilomycin) were added and images were taken every two hours over 72 h. Cell confluence is represented as % of area covered by cells. Each data point represents the average ratio or confluence obtained from three individual wells of the plate.

[2] = test system: U2OS cells; experiment: Cell growth assay (IncuCyte confluence over 72 h); format: cell-based; parameters: key to U2OS cell growth: % of well area covered by cells (confluence)
Protocol: as §1, with “50 μl of media containing either 2× final concentration of indicated compounds in or control compounds (final conc.: 0.1% DMSO, 250 nM Torin1, 200 ng/mL Bafilomycin) were added and images were taken every two hours over 72 h.” left out

[3] = target: LC3A (Homo sapiens, UniProt Q9H492); experiment: FP assay with Cy5-labelled p62 LIR tracer (protein titration and tracer displacement); format: binding; conditions: LC3A tracer displacement, normalized on p62-LIR positive control

Structure (SMILES): O=C1CC(c2ccc(Cl)c(Cl)c2)CC(=O)C1=CNCCN1CCNCC1 (centres unmarked) [Cov-3]
RPE1 cell growth ([1]; 100 nM, 0 h): 12 and 21 and 11 | RPE1 cell growth ([1]; 100 nM, 2 h): 14 and 25 and 13 | RPE1 cell growth ([1]; 100 nM, 6 h): 19 and 28 and 14 | RPE1 cell growth ([1]; 100 nM, 12 h): 20 and 32 and 17 | RPE1 cell growth ([1]; 500 nM, 0 h): 15 and 23 and 13 | RPE1 cell growth ([1]; 500 nM, 2 h): 16 and 27 and 14 | RPE1 cell growth ([1]; 500 nM, 6 h): 20 and 32 and 17 | RPE1 cell growth ([1]; 500 nM, 10 h): 21 and 34 and 17 | RPE1 cell growth ([1]; 500 nM, 12 h): 23 and 35 and 18 | RPE1 cell growth ([1]; 1 uM, 0 h): 13 and 24 | RPE1 cell growth ([1]; 1 uM, 8 h): 16 and 20 and 31 | RPE1 cell growth ([1]; 1 uM, 10 h): 17 and 18 and 32 | RPE1 cell growth ([1]; 1 uM, 12 h): 18 and 19 and 34 | RPE1 cell growth ([1]; 3 uM, 0 h): 16 and 20 and 13 | RPE1 cell growth ([1]; 3 uM, 2 h): 21 and 23 and 14 | RPE1 cell growth ([1]; 3 uM, 4 h): 23 and 26 and 14 | RPE1 cell growth ([1]; 3 uM, 6 h): 24 and 27 and 16 | RPE1 cell growth ([1]; 3 uM, 8 h): 24 and 29 and 17 | RPE1 cell growth ([1]; 3 uM, 10 h): 23 and 29 and 18 | RPE1 cell growth ([1]; 3 uM, 12 h): 26 and 31 and 20 | RPE1 cell growth ([1]; 5 uM, 0 h): 16 and 20 and 13 | RPE1 cell growth ([1]; 5 uM, 2 h): 20 and 24 and 15 | RPE1 cell growth ([1]; 5 uM, 4 h): 22 and 26 and 15 | RPE1 cell growth ([1]; 5 uM, 6 h): 23 and 28 and 18 | RPE1 cell growth ([1]; 5 uM, 8 h): 24 and 30 and 18 | RPE1 cell growth ([1]; 5 uM, 10 h): 22 and 29 and 19 | RPE1 cell growth ([1]; 5 uM, 12 h): 23 and 32 and 20 | RPE1 cell growth ([1]; 10 uM, 0 h): 16 and 20 and 13 | RPE1 cell growth ([1]; 10 uM, 2 h): 19 and 23 and 17 | RPE1 cell growth ([1]; 10 uM, 4 h): 22 and 25 and 18 | RPE1 cell growth ([1]; 10 uM, 6 h): 22 and 29 and 20 | RPE1 cell growth ([1]; 10 uM, 8 h): 24 and 31 and 21 | RPE1 cell growth ([1]; 10 uM, 10 h): 23 and 30 | RPE1 cell growth ([1]; 10 uM, 12 h): 26 and 32 and 23 | U2OS cell growth ([2]; 100 nM, time 10 h): 33.6743 and 37.4722 and 28.8223 | U2OS cell growth ([2]; 100 nM, time 0 h): 14.5416 and 22.9345 and 12.3076 | U2OS cell growth ([2]; 100 nM, time 2 h): 20.4728 and 24.9456 and 18.1328 | U2OS cell growth ([2]; 100 nM, time 4 h): 32.466 and 35.1005 and 23.9495 | U2OS cell growth ([2]; 100 nM, time 6 h): 27.7123 and 37.9082 and 23.0201 | U2OS cell growth ([2]; 100 nM, time 8 h): 36.178 and 29.1087 and 28.1634 | U2OS cell growth ([2]; 500 nM, time 0 h): 19.4597 and 15.6761 and 23.7515 | U2OS cell growth ([2]; 500 nM, time 2 h): 17.2401 and 19.2948 and 26.8842 | U2OS cell growth ([2]; 500 nM, time 4 h): 23.0548 and 20.6729 and 33.4847 | U2OS cell growth ([2]; 500 nM, time 6 h): 31.9275 and 22.0748 and 27.2708 | U2OS cell growth ([2]; 500 nM, time 8 h): 20.0458 and 23.4357 and 28.1267 | U2OS cell growth ([2]; 1 uM, time 10 h): 29.6152 | U2OS cell growth ([2]; 1 uM, time 0 h): 18.8183 and 26.6645 and 23.9984 | U2OS cell growth ([2]; 1 uM, time 2 h): 21.0614 and 26.8371 and 29.3905 | U2OS cell growth ([2]; 1 uM, time 4 h): 24.6352 and 31.1306 and 32.3496 | U2OS cell growth ([2]; 1 uM, time 6 h): 26.5224 and 36.4121 and 30.4909 | U2OS cell growth ([2]; 1 uM, time 8 h): 20.3314 and 37.2236 and 29.7059 | U2OS cell growth ([2]; 3 uM, time 0 h): 36.1248 and 21.9705 and 35.4647 | U2OS cell growth ([2]; 3 uM, time 2 h): 38.4423 and 25.3153 and 30.1014 | U2OS cell growth ([2]; 3 uM, time 4 h): 41.4594 and 31.6601 and 38.4044 | U2OS cell growth ([2]; 3 uM, time 6 h): 35.1153 and 23.5308 and 36.0085 | U2OS cell growth ([2]; 3 uM, time 8 h): 37.1896 and 25.2973 and 34.3262 | U2OS cell growth ([2]; 5 uM, time 10 h): 45.8479 and 32.8378 and 36.0561 | U2OS cell growth ([2]; 5 uM, time 0 h): 35.0072 and 29.5152 and 28.3077 | U2OS cell growth ([2]; 5 uM, time 2 h): 34.3656 and 30.4257 and 30.1228 | U2OS cell growth ([2]; 5 uM, time 4 h): 36.9905 and 31.4377 and 28.9247 | U2OS cell growth ([2]; 5 uM, time 6 h): 42.578 and 38.6163 and 31.6899 | U2OS cell growth ([2]; 5 uM, time 8 h): 38.0361 and 32.4495 and 27.1279 | U2OS cell growth ([2]; 10 uM, time 10 h): 36.2219 and 24.7441 and 23.9347 | U2OS cell growth ([2]; 10 uM, time 0 h): 31.5761 and 18.5024 and 22.4964 | U2OS cell growth ([2]; 10 uM, time 2 h): 30.3213 and 20.7145 and 20.7242 | U2OS cell growth ([2]; 10 uM, time 4 h): 34.613 and 22.1736 and 25.1322 | U2OS cell growth ([2]; 10 uM, time 6 h): 35.028 and 21.2307 and 23.3926 | U2OS cell growth ([2]; 10 uM, time 8 h): 32.1571 and 22.7698 and 18.9042

% tracer bound @LC3A [3]: 81%
Structure (SMILES): CCCCCCC(Sc1nc(Cl)cc(Nc2nc(-c3ccc(Cl)cc3)cs2)n1)C(=O)O (centres unmarked) [TH018]

% tracer bound @LC3A [3]: 84%
Structure (SMILES): CCCCCCC(Sc1nc(Cl)cc(Nc2nc(-c3ccccc3)cs2)n1)C(=O)O (centres unmarked) [TH020]

% tracer bound @LC3A [3]: 79%
Structure (SMILES): CCCCCCC(Sc1nc(Cl)cc(Nc2nc(-c3ccc(Br)cc3)cs2)n1)C(=O)O (centres unmarked) [TH026]

% tracer bound @LC3A [3]: 79%
Structure (SMILES): CCCCCCC(Sc1nc(Cl)cc(Nc2nc(-c3ccc4ccccc4c3)cs2)n1)C(=O)O (centres unmarked) [TH034]

% tracer bound @LC3A [3]: 85%
Structure (SMILES): CCC(Sc1nc(Cl)cc(Nc2nc(-c3ccc(Cl)cc3)cs2)n1)C(=O)O (centres unmarked) [TH035]

% tracer bound @LC3A [3]: 76%
Structure (SMILES): CCCCCCC(Sc1nc(Cl)cc(Nc2nc(-c3ccc(F)c(F)c3)cs2)n1)C(=O)O (centres unmarked) [TH044]

% tracer bound @LC3A [3]: 75%
Structure (SMILES): CCCCCCC(Sc1nc(Cl)cc(Nc2nc(-c3ccc(F)cc3F)cs2)n1)C(=O)O (centres unmarked) [TH054]

% tracer bound @LC3A [3]: 61%
Structure (SMILES): CCCCCCC(Sc1nc(Cl)cc(Nc2nc(-c3ccc([N+](=O)[O-])cc3)cs2)n1)C(=O)O (centres unmarked) [TH056]

% tracer bound @LC3A [3]: 94%
Structure (SMILES): CCCCCCC(Sc1nc(Cl)cc(Nc2nc(-c3ccc(Br)cc3)c(C)s2)n1)C(=O)O (centres unmarked) [TH057]

% tracer bound @LC3A [3]: 83%
Structure (SMILES): COc1ccc(CN(Cc2cccc(C#N)c2)S(=O)(=O)c2ccc(C(=O)O)cc2)cc1 [TH061]

% tracer bound @LC3A [3]: 76%
Structure (SMILES): CCCCCCC(Sc1nc(Cl)cc(Nc2nc3c(s2)CCc2cc(OC)ccc2-3)n1)C(=O)O (centres unmarked) [TH062]

% tracer bound @LC3A [3]: 84%
Structure (SMILES): CCCCCCC(Sc1nc(Cl)cc(Nc2nc(-c3ccc(Cl)c(Cl)c3)cs2)n1)C(=O)O (centres unmarked) [TH083]

% tracer bound @LC3A [3]: 76%
Structure (SMILES): CCCCCCC(Sc1nc(Cl)cc(Nc2nc(-c3ccc(C(F)(F)F)cc3)cs2)n1)C(=O)O (centres unmarked) [TH084]

% tracer bound @LC3A [3]: 77%
Structure (SMILES): CCCCCCC(Sc1nc(Cl)cc(Nc2nc(-c3ccccc3)c(CC)s2)n1)C(=O)O (centres unmarked) [TH100]

% tracer bound @LC3A [3]: 78%
Structure (SMILES): CCCCCCC(Sc1nc(Cl)cc(Nc2nc(-c3ccc(Cl)cc3Cl)cs2)n1)C(=O)O (centres unmarked) [TH102]

% tracer bound @LC3A [3]: 82%
Structure (SMILES): CCCCCCC(Sc1nc(Cl)cc(Nc2nc(-c3ccc(-c4ccccc4)cc3)cs2)n1)C(=O)O (centres unmarked) [TH104]

% tracer bound @LC3A [3]: 84%
Structure (SMILES): CCCCCCC(Sc1nc(Cl)cc(Nc2nc(C34CC5CC(CC(C5)C3)C4)cs2)n1)C(=O)O (centres unmarked) [TH105]

% tracer bound @LC3A [3]: 82%
Structure (SMILES): CCC(Sc1nc(Cl)cc(Nc2nc(-c3ccc4ccccc4c3)cs2)n1)C(=O)O (centres unmarked) [TH107]

% tracer bound @LC3A [3]: 92%
Structure (SMILES): COc1ccc(CN(CC2CCCCC2)S(=O)(=O)c2ccc(C(=O)O)cc2)cc1 [TH119]

% tracer bound @LC3A [3]: 83%
Structure (SMILES): CCCCCCC(Sc1nc(Cl)cc(Nc2nc(-c3ccc(OC)cc3)cs2)n1)C(=O)O (centres unmarked) [TH121]

% tracer bound @LC3A [3]: 82%
Structure (SMILES): O=C(O)c1ccc(S(=O)(=O)N(Cc2ccc(Oc3ccccc3)cc2)CC2CCCCC2)cc1 [TH133]

% tracer bound @LC3A [3]: 85%
Structure (SMILES): CCCCCCC(Sc1nc2ccc(NC(=O)c3ccc(C(C)(C)C)cc3)cc2s1)C(=O)O (centres unmarked) [TH177]

% tracer bound @LC3A [3]: 78%
Structure (SMILES): CCCCCCC(Sc1nc2ccc(NC(=O)c3ccc(-c4ccccc4)cc3)cc2s1)C(=O)O (centres unmarked) [TH181]

% tracer bound @LC3A [3]: 82%
Structure (SMILES): CCCCCCC(Sc1nc2ccc(NCc3ccc(C(C)(C)C)cc3)cc2s1)C(=O)O (centres unmarked) [TH185]

% tracer bound @LC3A [3]: 89%
Structure (SMILES): CCCCC(Sc1nc2ccc(NC(=O)c3ccc(C(C)(C)C)cc3)cc2s1)C(=O)O (centres unmarked) [TH188]

% tracer bound @LC3A [3]: 78%
Structure (SMILES): CCCCCCC(Sc1nc2ccc(NCc3ccc4ccccc4c3)cc2s1)C(=O)O (centres unmarked) [TH191]

% tracer bound @LC3A [3]: 78%
Structure (SMILES): CCCCCCC(Sc1nc2ccc(NCc3ccccc3)cc2s1)C(=O)O (centres unmarked) [TH195]

% tracer bound @LC3A [3]: 79%
Structure (SMILES): CCCCCCC(Sc1nc2ccc(NCc3ccc(Cl)c(Cl)c3)cc2s1)C(=O)O (centres unmarked) [TH198]

% tracer bound @LC3A [3]: 72%
Structure (SMILES): CCCCCCC(Sc1nc2ccc(NCc3ccc(-c4ccccc4)cc3)cc2s1)C(=O)O (centres unmarked) [TH200]

% tracer bound @LC3A [3]: 88%
Structure (SMILES): O=C(NCc1ccccc1)c1ccc(S(=O)(=O)Nc2ccccc2)cc1 [TH253]

Structure (SMILES): Cc1ccc(NS(=O)(=O)c2ccc(C(=O)N(C)Cc3ccccc3)cc2)cc1 [TH281]
% tracer bound @LC3A [3]: 95%

% tracer bound @LC3A [3]: 84%
Structure (SMILES): CN(Cc1ccccc1)C(=O)c1ccc(S(=O)(=O)Nc2ccccc2)cc1 [TH676]

% tracer bound @LC3A [3]: 87%
Structure (SMILES): CCN(Cc1ccccc1)C(=O)c1ccc(S(=O)(=O)Nc2ccccc2)cc1 [TH677]
